Read-outs that look alike come from different tables or passages of the source.
Legend:
hNSC = assay: MMP assay in human neural stem cells (hNSC); assay type: cell-based; settings: Homo sapiens, Neural stem cell; 1 h treatment; fresh re-sourced stocks; mean±SD of three experiments; read-out: hNSC IC50 (MMP)
HepG2 cells [1] = assay: ROS-Glo hydrogen peroxide (ROS) assay; assay type: cell-based, human; settings: 2 h treatment, mean±SD of three experiments
HepG2 cells [2] = assay: Intracellular ATP content (cell viability) assay; assay type: cell-based, human; settings: 40 h treatment, mean±SD of three experiments; for IC50: Homo sapiens, HepG2
[3] = test system: p53 (p53-bla HCT-116 cells); assay: p53 β-lactamase reporter gene assay; assay type: cell-based, human; settings: 16 h incubation; mean±SD of three experiments
[4] = test system: Nrf2/ARE (ARE-bla HepG2 cells); assay: ARE β-lactamase reporter gene assay; assay type: cell-based, human; settings: Homo sapiens, HepG2; 16 h incubation; mean±SD of three experiments; read-out: ARE (HepG2) EC50
[5] = test system: isolated rat liver mitochondria; assay: Oxygen consumption, Clark-type oxygen electrode; assay type: biochemical; settings: for I-ADP, % of control (O2 consumption rate): glutamate/malate driven state 3 respiration; for I-ADP, % of control (O2 consumption rate) / I-sub, % of control (O2 consumption rate) / II-ADP, % of control (O2 consumption rate) / II-sub, % of control (O2 consumption rate): isolated rat liver mitochondria; for I-sub, % of control (O2 consumption rate): glutamate/malate driven state 4 respiration; for II-ADP, % of control (O2 consumption rate): succinate-driven state 3 respiration; for II-sub, % of control (O2 consumption rate): succinate-driven state 4 respiration; for Potential Mechanism: mitochondrial respiration in isolated rat liver mitochondria, Clark type oxygen electrode, over tested concentrations
[6] = test system: HeLa cells expressing YFP-Parkin; assay: Parkin translocation assay; assay type: cell-based, human; settings: HeLa cells stably expressing YFP-Parkin; treated for 2 h
HepG2 cells [7] = settings: 10 mM galactose, no glucose; 1 h treatment; mean±SD of three experiments
HepG2 cells [8] = settings: cited from earlier work
HepG2 cells [9] = assay: cells; settings: Homo sapiens; for Emax: HepG2, read-out: MMP assays efficacy (%) HepG2
[10] = test system: Caenorhabditis elegans strain PE255; assay: In vivo C. elegans ATP status assay
rat primary hepatocytes = assay: MMP assay in rat primary hepatocytes; settings: for Rat hepatocytes (efficacy) (MMP): % of positive control, mean±SD of three experiments; for IC50: Rattus norvegicus, Hepatocyte; for MMP assays efficacy (%) Rat Hepatocytes: mean ± SD of three experiments
[11] = test system: Caenorhabditis elegans (Bristol N2); assay: C. elegans larval development and growth assay
[12] = HepG2, 1 h, read-out: HepG2 IC50 Glucose (MMP)
[13] = HepG2, read-out: MMP assays IC50 (µM) HepG2
[14] = 1 h, read-out: Rat hepatocytes IC50 (MMP)
[15] = read-out: MMP assays IC50 (µM) Rat Hepatocytes

O=C(O)c1cc(O)c2c(c1)C(=O)c1cccc(O)c1C2=O [Rhein]
IC50 (hNSC): 10.3 ± 3.4 µM
ROS (HepG2) EC50 (HepG2 cells [1]): Inactive
ATP (HepG2, glucose) IC50 (HepG2 cells [2]; 5 mM glucose): Inactive
ATP (HepG2, galactose) IC50 (HepG2 cells [2]; 10 mM galactose): Inactive
p53 (HCT-116) EC50 [3]: Inactive
EC50 [4]: 15.4 ± 8.38 µM
I-ADP, % of control (O2 consumption rate) ([5]; 4 µM): 90 (49.1) % of control
I-sub, % of control (O2 consumption rate) ([5]; 4 µM): 105 (13.7) % of control
II-ADP, % of control (O2 consumption rate) ([5]; 4 µM): 89 (78.7) % of control
II-sub, % of control (O2 consumption rate) ([5]; 4 µM): 103 (25.4) % of control
I-ADP, % of control (O2 consumption rate) ([5]; 20 µM): 87 (47.4) % of control
I-sub, % of control (O2 consumption rate) ([5]; 20 µM): 127 (16.6) % of control
II-ADP, % of control (O2 consumption rate) ([5]; 20 µM): 87 (76.7) % of control
II-sub, % of control (O2 consumption rate) ([5]; 20 µM): 128 (31.4) % of control
Potential Mechanism [5]: Uncoupler
Parkin recruitment [6]: Inactive
HepG2 IC50 Galactose (MMP) (HepG2 cells [7]): Inactive
MMP assays efficacy (%) qHTS-HepG2 (HepG2 cells [8]): -100±22%
IC50 (HepG2 cells [8]; read-out: MMP assays IC50 (µM), qHTS-HepG2): 6.06 ± 5.91 µM
IC50 (HepG2 cells [9]; [12]): 15.2 ± 1.76 µM
IC50 (HepG2 cells [9]; [13]): 8.91 µM
Emax (HepG2 cells [9]): 86%
LUM: mean difference in luminescence (ATP content) relative to plate controls ([10]; 0.05 µM): -0.02422
LUM: mean difference in luminescence (ATP content) relative to plate controls ([10]; 0.1 µM): 0.007311
LUM: mean difference in luminescence (ATP content) relative to plate controls ([10]; 0.5 µM): 0.006998
LUM: mean difference in luminescence (ATP content) relative to plate controls ([10]; 1 µM): 0.1053
LUM: mean difference in luminescence (ATP content) relative to plate controls ([10]; 5 µM): 0.1063
LUM: mean difference in luminescence (ATP content) relative to plate controls ([10]; 10 µM): 0.1127
LUM: mean difference in luminescence (ATP content) relative to plate controls ([10]; 25 µM): 0.2215
LUM: mean difference in luminescence (ATP content) relative to plate controls ([10]; 50 µM): 0.2804
LUM: mean difference in luminescence (ATP content) relative to plate controls ([10]; 75 µM): 0.1816
LUM: mean difference in luminescence (ATP content) relative to plate controls ([10]; 100 µM): 0.2365
Rat hepatocytes (efficacy) (MMP) (rat primary hepatocytes): −37.5±6.05%
IC50 (rat primary hepatocytes; [14]): 6.76 ± 4.03 µM
IC50 (rat primary hepatocytes; [15]): 11.6 ± 4.85 µM
MMP assays efficacy (%) Rat Hepatocytes (rat primary hepatocytes): -80±28%
EXT: mean difference in nematode size relative to plate controls ([11]; 0.5 µM): 0.02304
EXT: mean difference in nematode size relative to plate controls ([11]; 1 µM): 0.01629
EXT: mean difference in nematode size relative to plate controls ([11]; 5 µM): 0.06956
EXT: mean difference in nematode size relative to plate controls ([11]; 10 µM): -0.06339
EXT: mean difference in nematode size relative to plate controls ([11]; 25 µM): -0.09625
EXT: mean difference in nematode size relative to plate controls ([11]; 50 µM): 0.296
EXT: mean difference in nematode size relative to plate controls ([11]; 75 µM): 0.2342
EXT: mean difference in nematode size relative to plate controls ([11]; 100 µM): 0.2496

NNc1nc(-c2ccc(N)cc2)cs1 [2-Hydrazino-4-(4-aminophenyl) thiazole]
IC50 (hNSC): 1.76 ± 0.57 µM
EC50 (HepG2 cells [1]; Homo sapiens, HepG2, read-out: ROS (HepG2) EC50): 25.4 ± 3.24 µM
IC50 (HepG2 cells [2]; 5 mM glucose, read-out: ATP (HepG2, glucose) IC50): 59.5 ± 23.5 µM
IC50 (HepG2 cells [2]; 10 mM galactose, read-out: ATP (HepG2, galactose) IC50): 60.8 ± 6.99 µM
p53 (HCT-116) EC50 [3]: Inactive
EC50 [4]: 10.5 ± 8.1 µM
I-ADP, % of control (O2 consumption rate) ([5]; 100 µM): 105 (55.7) % of control
I-sub, % of control (O2 consumption rate) ([5]; 100 µM): 109 (14.6) % of control
II-ADP, % of control (O2 consumption rate) ([5]; 100 µM): 101 (68.1) % of control
II-sub, % of control (O2 consumption rate) ([5]; 100 µM): 98 (21.3) % of control
Potential Mechanism [5]: Inactive
Parkin recruitment [6]: Inactive
MMP assays efficacy (%) qHTS-HepG2 (HepG2 cells [8]): -83±12%
IC50 (HepG2 cells [8]; read-out: MMP assays IC50 (µM) qHTS-HepG2): 0.06 ± 0.02 µM
IC50 (HepG2 cells [9]; HepG2, 1 h, read-out: HepG2 IC50 Galactose (MMP)): 18.5 ± 2.55 µM
IC50 (HepG2 cells [9]; [12]): 15.3 ± 1.76 µM
IC50 (HepG2 cells [9]; [13]): 0.4 µM
Emax (HepG2 cells [9]): 85%
LUM: mean difference in luminescence (ATP content) relative to plate controls ([10]; 0.5 µM): 0.02471
LUM: mean difference in luminescence (ATP content) relative to plate controls ([10]; 1 µM): 0.06159
LUM: mean difference in luminescence (ATP content) relative to plate controls ([10]; 5 µM): 0.05233
LUM: mean difference in luminescence (ATP content) relative to plate controls ([10]; 10 µM): 0.08412
LUM: mean difference in luminescence (ATP content) relative to plate controls ([10]; 25 µM): 0.4284
LUM: mean difference in luminescence (ATP content) relative to plate controls ([10]; 50 µM): 0.3261
LUM: mean difference in luminescence (ATP content) relative to plate controls ([10]; 75 µM): 0.5564
LUM: mean difference in luminescence (ATP content) relative to plate controls ([10]; 100 µM): 0.6002
minimal effective concentration ([10]; Caenorhabditis elegans, read-out: LEC LUM: lowest effect concentration for luminescence, a measure of nematode ATP content): 25 µM
Rat hepatocytes (efficacy) (MMP) (rat primary hepatocytes): −50.5±1.77%
IC50 (rat primary hepatocytes; [14]): 19.8 ± 11.5 µM
IC50 (rat primary hepatocytes; [15]): 3.55 ± 3.86 µM
MMP assays efficacy (%) Rat Hepatocytes (rat primary hepatocytes): -67±14%
EXT: mean difference in nematode size relative to plate controls ([11]; 0.5 µM): 0.05389
EXT: mean difference in nematode size relative to plate controls ([11]; 1 µM): 0.002943
EXT: mean difference in nematode size relative to plate controls ([11]; 5 µM): -0.00605
EXT: mean difference in nematode size relative to plate controls ([11]; 10 µM): 0.1893
EXT: mean difference in nematode size relative to plate controls ([11]; 25 µM): 0.2089
EXT: mean difference in nematode size relative to plate controls ([11]; 50 µM): 0.1347
EXT: mean difference in nematode size relative to plate controls ([11]; 75 µM): 0.3557
EXT: mean difference in nematode size relative to plate controls ([11]; 100 µM): 0.3701
minimal effective concentration ([11]; Caenorhabditis elegans, read-out: LEC EXT: lowest effect concentration for extinction, a measure of nematode size): 25 µM

— publication PMC6112376, “Comprehensive Analyses and Prioritization of Tox21 10K Chemicals Affecting Mitochondrial Function by in-Depth Mechanistic Studies” (Environmental Health Perspectives, 2018)
